According to patent US7517884B2 (Kalypsys Inc., priority 1998, dated 2009):

Key:
Type in all cases: cell-based, murine and human
Conditions in all cases: GAL4-PPAR LBD chimera
PPAR-gamma = target: T1, PPAR-gamma (UniProt P37231); assay: PPAR-gamma transactivation assay (GAL4 chimera, luciferase reporter) in CV-1 cells
T1 sequence (P37231 1-505): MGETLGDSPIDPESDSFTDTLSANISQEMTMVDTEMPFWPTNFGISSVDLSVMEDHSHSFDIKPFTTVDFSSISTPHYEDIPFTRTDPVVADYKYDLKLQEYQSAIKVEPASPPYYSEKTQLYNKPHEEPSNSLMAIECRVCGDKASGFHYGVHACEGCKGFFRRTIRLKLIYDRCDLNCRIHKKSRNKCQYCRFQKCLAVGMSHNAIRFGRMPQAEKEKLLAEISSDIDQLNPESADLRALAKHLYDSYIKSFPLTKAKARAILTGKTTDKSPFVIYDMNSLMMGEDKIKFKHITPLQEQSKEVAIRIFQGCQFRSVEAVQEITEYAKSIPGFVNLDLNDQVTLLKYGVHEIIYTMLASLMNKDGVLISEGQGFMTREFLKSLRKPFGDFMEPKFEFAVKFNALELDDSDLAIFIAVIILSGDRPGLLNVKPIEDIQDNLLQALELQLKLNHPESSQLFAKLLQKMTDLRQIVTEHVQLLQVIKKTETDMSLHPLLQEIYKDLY
From the text: (§1) Compounds may be screened for functional potency in transient transfection assays in CV-1 cells for their ability to activate the PPAR subtypes (transactivation assay). A previously established chimeric receptor system was utilized to allow comparison of the relative transcriptional activity of the receptor subtypes on the same synthetic response element and to prevent endogenous receptor activation from complicating the interpretation of results. See, for example, Lehmann, J. M.; Moore, L. B.; Smith-Oliver, T. A; Wilkinson, W. O.; Willson, T. M.; Kliewer, S. A., An antidiabetic thiazolidinedione is a high affinity ligand for peroxisome proliferator-activated receptor […], J. Biol. Chem., 1995, 270, 12953-6. The ligand binding domains for murine and human PPAR-alpha, PPAR-gamma, and PPAR-delta are each fused to the yeast transcription factor GAL4 DNA binding domain. CV-1 cells were transiently transfected with expression vectors for the respective PPAR chimera along with a reporter construct containing four or five copies of the GAL4 DNA binding site driving expression of luciferase. After 8-16 h, the cells are replated into multi-well assay plates and the media is exchanged to phenol-red free DME medium supplemented with 5% delipidated calf serum. 4 hours after replating, cells were treated with either compounds or 1% DMSO for 20-24 hours. Luciferase activity was then assayed with Britelite (Perkin Elmer) following the manufacturer's protocol and measured with either the Perkin Elmer Viewlux or Molecular Devices Acquest (see, for example, Kliewer, S. A., et. al. Cell 1995, 83, 813-819). Rosiglitazone is used as a positive control in the PPARγ assay. Wy-14643 and GW7647 are used as positive controls in the PPARα assay. GW501516 is used as the positive control in the PPARδ assay.
(§2) Compounds of Examples 1-141 were assayed to measure their biological activity with respect to their EC50 values for modulating PPAR-alpha, PPAR-gamma, and PPAR-delta as set forth in Table 1.

PPAR-delta = target: T2, PPAR-delta (UniProt Q03181); assay: PPAR-delta transactivation assay (GAL4 chimera, luciferase reporter) in CV-1 cells
T2 sequence (Q03181 1-441): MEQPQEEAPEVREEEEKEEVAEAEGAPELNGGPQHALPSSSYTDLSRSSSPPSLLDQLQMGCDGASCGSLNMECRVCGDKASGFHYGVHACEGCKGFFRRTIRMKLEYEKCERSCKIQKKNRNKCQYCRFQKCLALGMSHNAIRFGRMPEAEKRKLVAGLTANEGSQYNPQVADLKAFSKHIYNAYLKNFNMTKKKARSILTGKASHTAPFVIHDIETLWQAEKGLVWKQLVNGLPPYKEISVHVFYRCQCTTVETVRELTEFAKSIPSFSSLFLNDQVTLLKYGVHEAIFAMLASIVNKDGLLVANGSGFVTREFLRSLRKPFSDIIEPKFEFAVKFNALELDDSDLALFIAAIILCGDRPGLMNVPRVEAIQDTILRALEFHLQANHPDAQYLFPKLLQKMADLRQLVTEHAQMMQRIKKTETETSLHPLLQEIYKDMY
From the text: as §1, §2

PPAR-alpha = target: T3, PPAR-alpha (UniProt Q07869); assay: PPAR-alpha transactivation assay (GAL4 chimera, luciferase reporter) in CV-1 cells
T3 sequence (Q07869 1-468): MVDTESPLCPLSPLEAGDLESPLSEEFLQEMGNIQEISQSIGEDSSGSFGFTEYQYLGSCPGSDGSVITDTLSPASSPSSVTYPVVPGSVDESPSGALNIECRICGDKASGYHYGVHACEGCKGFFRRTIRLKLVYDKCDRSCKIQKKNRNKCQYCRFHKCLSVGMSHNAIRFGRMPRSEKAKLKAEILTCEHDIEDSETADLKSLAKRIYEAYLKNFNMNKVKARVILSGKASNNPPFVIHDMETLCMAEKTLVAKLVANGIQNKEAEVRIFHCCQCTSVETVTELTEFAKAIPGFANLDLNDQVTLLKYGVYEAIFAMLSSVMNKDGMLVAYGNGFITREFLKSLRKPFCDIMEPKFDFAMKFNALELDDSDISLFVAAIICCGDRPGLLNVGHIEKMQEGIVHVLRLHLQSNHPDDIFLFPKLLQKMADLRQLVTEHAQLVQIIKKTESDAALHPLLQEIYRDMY
From the text: as §1, §2

| EC50 (PPAR-gamma) [µM] | EC50 (PPAR-delta) [µM] | EC50 (PPAR-alpha) [µM] | Structure (SMILES) |
| --- | --- | --- | --- |
| > 100 | < 5 | > 100 | C[C@@H]1CN(c2ccc(C(F)(F)F)c(Cl)c2)C[C@H](C)N1S(=O)(=O)c1cccc2c1CC(C(=O)O)C2 (relative stereo) [Example 82, 4-[4-(3-chloro-4-trifluoromethyl-phenyl)-cis-2,6-dimethyl-piperazine-1-sulfonyl]-indan-2-carboxylic acid] |
| < 5 | < 5 | 5 to 100 | O=C(O)C1Cc2cccc(S(=O)(=O)N3CCN(c4ccc(C(F)(F)F)cn4)CC3)c2C1 (single isomer, unassigned) [Example 11] |
| 5 to 100 | < 5 | 5 to 100 | C[C@@H]1CN(c2ccc(C(F)(F)F)cn2)C[C@H](C)N1S(=O)(=O)c1ccc2c(c1)C(C(=O)O)CC2 (single isomer, unassigned) [Example 75, 6-[cis-2,6-dimethyl-4-(5-trifluoromethylpyridin-2-yl)-piperazine-1-sulfonyl]-indan-1-carboxylic acid] |
| > 100 | < 5 | > 100 | C[C@@H]1CN(c2ccc(C(F)(F)F)cn2)C[C@H](C)N1S(=O)(=O)c1ccc2c(c1)C(C(=O)O)CC2 (single isomer, unassigned) [Example 76, 6-[cis-2,6-dimethyl-4-(5-trifluoromethylpyridin-2-yl)-piperazine-1-sulfonyl]-indan-1-carboxylic acid] |
| > 100 | < 5 | > 100 | C[C@@H]1CN(c2ccc(OC(F)(F)F)cc2)C[C@H](C)N1S(=O)(=O)c1cccc2c1CC(C(=O)O)C2 (single isomer, unassigned) [Example 80] |
| 5 to 100 | < 5 | > 100 | CC1CN(S(=O)(=O)c2cccc3c2CC(C(=O)O)C3)C(C)CN1c1ccc(C(F)(F)F)cn1 (single isomer, unassigned) [Example 118, 4-[2S,5S-dimethyl-4-(5-trifluoromethyl-pyridin-2-yl)-piperazine-1-sulfonyl]-indan-2-carboxylic acid] |
| > 100 | 5 to 100 | > 100 | CC1CN(S(=O)(=O)c2cccc3c2CC(C(=O)O)C3)C(C)CN1c1ccc(C(F)(F)F)cn1 (single isomer, unassigned) [Example 119, 4-[2S,5S-dimethyl-4-(5-trifluoromethyl-pyridin-2-yl)-piperazine-1-sulfonyl]-indan-2-carboxylic acid] |
| > 100 | < 5 | > 100 | C[C@@H]1CN(c2ccc(Cl)cc2)C[C@H](C)N1S(=O)(=O)c1cccc2c1CC(C(=O)O)C2 (single isomer, unassigned) [Example 127, 4-(4-(4-chlorophenyl)-cis-2,6-dimethylpiperazin-1-ylsulfonyl)-2,3-dihydro-1H-indene-2-carboxylic acid] |
| > 100 | 5 to 100 | > 100 | C[C@@H]1CN(c2ccc(Cl)cc2)C[C@H](C)N1S(=O)(=O)c1cccc2c1CC(C(=O)O)C2 (single isomer, unassigned) [Example 128, 4-(4-(4-chlorophenyl)-cis-2,6-dimethylpiperazin-1-ylsulfonyl)-2,3-dihydro-1H-indene-2-carboxylic acid] |
| > 100 | < 5 | > 100 | C[C@@H]1CN(c2cccc(OC(F)(F)F)c2)C[C@H](C)N1S(=O)(=O)c1cccc2c1CC(C(=O)O)C2 (single isomer, unassigned) [Example 129, 4-[cis-2,6-dimethyl-4-(3-trifluoromethoxyphenyl)piperazin-1-ylsulfonyl]-2,3-dihydro-1H-indene-2-carboxylic acid] |
| > 100 | 5 to 100 | > 100 | C[C@@H]1CN(c2cccc(OC(F)(F)F)c2)C[C@H](C)N1S(=O)(=O)c1cccc2c1CC(C(=O)O)C2 (single isomer, unassigned) [Example 130, 4-[cis-2,6-dimethyl-4-(3-trifluoromethoxyphenyl)piperazin-1-ylsulfonyl]-2,3-dihydro-1H-indene-2-carboxylic acid] |
| > 100 | < 5 | > 100 | C[C@@H]1CN(c2ccc(C(F)(F)F)c(Cl)c2)C[C@H](C)N1S(=O)(=O)c1cccc2c1CC(C(=O)O)C2 (single isomer, unassigned) [Example 138, 4-(4-(3-chloro-4-(trifluoromethyl)phenyl)-cis-2,6-dimethylpiperazin-1-ylsulfonyl)-2,3-dihydro-1H-indene-2-carboxylic acid] |
| > 100 | 5 to 100 | > 100 | C[C@@H]1CN(c2ccc(C(F)(F)F)c(Cl)c2)C[C@H](C)N1S(=O)(=O)c1cccc2c1CC(C(=O)O)C2 (single isomer, unassigned) [Example 139, 4-(4-(3-chloro-4-(trifluoromethyl)phenyl)-cis-2,6-dimethylpiperazin-1-ylsulfonyl)-2,3-dihydro-1H-indene-2-carboxylic acid] |
| 5 to 100 | < 5 | > 100 | C[C@@H]1CN(Cc2ccc(OC(F)(F)F)cc2)C[C@H](C)N1S(=O)(=O)c1cccc2c1CC(C(=O)O)C2 (single isomer, unassigned) [Example 140] |
| > 100 | 5 to 100 | > 100 | C[C@@H]1CN(Cc2ccc(OC(F)(F)F)cc2)C[C@H](C)N1S(=O)(=O)c1cccc2c1CC(C(=O)O)C2 (single isomer, unassigned) [Example 141] |
| < 5 | < 5 | < 5 | C[C@@H]1[C@H](C)N(c2ccc(C(F)(F)F)cn2)CCN1S(=O)(=O)c1ccc2c(c1)C(C(=O)O)CC2 (stereo in doubt) [Example 86, 6-[2,3-Dimethyl-4-(5-trifluoromethyl-pyridin-2-yl)-piperazine-1-sulfonyl]-indan-1-carboxylic acid] |
| < 5 | < 5 | 5 to 100 | C[C@@H]1[C@H](C)N(c2ccc(C(F)(F)F)cn2)CCN1S(=O)(=O)c1ccc2scc(CC(=O)O)c2c1 (stereo in doubt) [Example 87, {5-[2,3-Dimethyl-4-(5-trifluoromethyl-pyridin-2-yl)-piperazine-1-sulfonyl]-benzo[b]thiophen-3-yl}-acetic acid] |
| 5 to 100 | 5 to 100 | 5 to 100 | O=C(O)CC1Cc2ccc(S(=O)(=O)N3CCN(c4ccc(C(F)(F)F)cc4)CC3)cc2C1 (stereo not drawn) [Example 1, {5-[4-(4-trifluoromethylphenyl)-piperazine-1-sulfonyl]-indan-2-yl}-acetic acid] |
